Reference: patent publication US20210079015A1, “NOVEL DIHYDROISOXAZOLE COMPOUNDS AND THEIR USE FOR THE TREATMENT OF HEPATITIS B” (Novartis AG, priority 2017, published 2021)

These compounds were tested on HBV (assay: Anti-HBV assay (inhibition of HBV replication in HepG2.cl42 cells, HBV DNA by qPCR)). Conditions: Hepatitis B virus, 96 h, treated four days, HBV DNA quantified by real time PCR, read-out: HBsAg EC50.
Assay type: cell-based, HBV ayw strain

`O=C(Nc1cc(F)c(F)c(F)c1)N1CCc2noc(C3CCCCC3)c2C1` [Compound 2.1, 3-cyclohexyl-N-(3,4,5-trifluorophenyl)-6,7-dihydroisoxazolo[4,3-c]pyridine-5(4H)-carboxamide] and `C[C@H]1Cc2noc(C3CCCC3)c2CN1C(=O)Nc1cc(F)c(F)c(F)c1` [Compound 43] fall in the same range of EC50: 100 to 1000 nM for the first, 100 to 1000 nM for the second.

`C[C@H]1c2c(noc2C2CCCC2)CCN1C(=O)Nc1cc(F)c(F)c(F)c1` [Compound 44] and `C[C@H]1c2c(noc2-c2cn(C)nn2)CCN1C(=O)Nc1cc(F)c(F)c(F)c1` [Compound 38] cannot be ordered by EC50: no less than 1000 nM for the first, no less than 1000 nM for the second.

`C[C@H]1Cc2noc(-c3ccc(OC(F)(F)F)cc3)c2CN1C(=O)Nc1cc(F)c(F)c(F)c1` [Compound 16] and `C[C@H]1Cc2noc(-c3ccc(OC(F)F)cc3)c2CN1C(=O)Nc1cc(F)c(F)c(F)c1` [Compound 24] fall in the same range of EC50: 100 to 1000 nM for the first, 100 to 1000 nM for the second.

`C[C@H]1Cc2noc(-c3ccc(C#N)cc3)c2CN1C(=O)Nc1cc(F)c(F)c(F)c1` [Compound 19] and `C[C@H]1Cc2noc(-c3cccc(C#N)c3)c2CN1C(=O)Nc1cc(F)c(F)c(F)c1` [Compound 14] fall in the same range of EC50: 100 to 1000 nM for the first, 100 to 1000 nM for the second.

First: CC1CCN(c2onc3c2CN(C(=O)Nc2cc(F)c(F)c(F)c2)[C@@H](C)C3)C1=O (stereo partly drawn) [Compound 56, (6S)-6-methyl-3-(3-methyl-2-oxopyrrolidin-1-yl)-N-(3,4,5-trifluorophenyl)-6,7-dihydroisoxazolo[4,3-c]pyridine-5(4H)-carboxamide]
Second: C[C@H]1Cc2noc(N3CCC(CC(=O)O)C3=O)c2CN1C(=O)Nc1cc(F)c(F)c(F)c1 (stereo partly drawn) [Compound 63, 2-(1-((S)-6-methyl-5-((3,4,5-trifluorophenyl)carbamoyl)-4,5,6,7-tetrahydroisoxazolo[4,3-c]pyridin-3-yl)-2-oxopyrrolidin-3-yl)acetic acid]
The EC50 of the first is lower: less than 100 nM for the first, no less than 1000 nM for the second. The first is the more potent here.

`O=C(Nc1cc(F)c(F)c(F)c1)C1CCc2noc(-c3ccc(F)cc3F)c2C1` (stereo not drawn) [Compound 6.1, 3-(2,4-difluorophenyl)-N-(3,4,5-trifluorophenyl)-4,5,6,7-tetrahydrobenzo[c]isoxazole-5-carboxamide] and `O=C(Nc1cc(F)c(F)c(F)c1)N1CCc2noc(-c3ccc(F)cc3F)c2C1` [Compound 1.1, 3-(2,4-difluorophenyl)-N-(3,4,5-trifluorophenyl)-6,7-dihydroisoxazolo[4,3-c]pyridine-5(4H)-carboxamide] fall in the same range of EC50: 100 to 1000 nM for the first, 100 to 1000 nM for the second.

`Cc1nc(-c2onc3c2CN(C(=O)Nc2cc(F)c(F)c(F)c2)[C@@H](C)C3)cs1` [Compound 29, (S)-6-methyl-3-(2-methylthiazol-4-yl)-N-(3,4,5-trifluorophenyl)-6,7-dihydroisoxazolo[4,3-c]pyridine-5(4H)-carboxamide] and `Cc1cc(-c2onc3c2CN(C(=O)Nc2cc(F)c(F)c(F)c2)[C@@H](C)C3)no1` [Compound 25, (S)-6-methyl-3-(5-methylisoxazol-3-yl)-N-(3,4,5-trifluorophenyl)-6,7-dihydroisoxazolo[4,3-c]pyridine-5(4H)-carboxamide] fall in the same range of EC50: 100 to 1000 nM for the first, 100 to 1000 nM for the second.

`C[C@H]1Cc2noc(-c3ccc(F)cn3)c2CN1C(=O)Nc1cc(F)c(F)c(F)c1` [Compound 27, (S)-3-(5-fluoropyridin-2-yl)-6-methyl-N-(3,4,5-trifluorophenyl)-6,7-dihydroisoxazolo[4,3-c]pyridine-5(4H)-carboxamide] and `C[C@@H]1Cc2noc(-c3ccc(F)cc3F)c2CN1C(=O)Nc1cc(F)c(F)c(F)c1` [Compound 3.1-II, (R)-3-(2,4-difluorophenyl)-6-methyl-N-(3,4,5-trifluorophenyl)-6,7-dihydroisoxazolo[4,3-c]pyridine-5(4H)-carboxamide] fall in the same range of EC50: 100 to 1000 nM for the first, 100 to 1000 nM for the second.

`C[C@H]1Cc2noc(N3CCCC3=O)c2CN1C(=O)Nc1cc(F)c(F)c(F)c1` [Compound 8.1, (S)-6-methyl-3-(2-oxopyrrolidin-1-yl)-N-(3,4,5-trifluorophenyl)-6,7-dihydroisoxazolo[4,3-c]pyridine-5(4H)-carboxamide] and `C[C@H]1Cc2noc(N3CCCOC3=O)c2CN1C(=O)Nc1cc(F)c(F)c(F)c1` [Compound 48, (S)-6-methyl-3-(2-oxo-1,3-oxazinan-3-yl)-N-(3,4,5-trifluorophenyl)-6,7-dihydroisoxazolo[4,3-c]pyridine-5(4H)-carboxamide] cannot be ordered by EC50: less than 100 nM for the first, less than 100 nM for the second.

`Cc1cccc(-c2onc3c2CN(C(=O)Nc2cc(F)c(F)c(F)c2)[C@@H](C)C3)c1` [Compound 23] and `C[C@H]1Cc2noc(-c3cccc(Cl)c3)c2CN1C(=O)Nc1cc(F)c(F)c(F)c1` [Compound 22] cannot be ordered by EC50: no less than 1000 nM for the first, no less than 1000 nM for the second.

`C[C@H]1Cc2noc(N3CCCS3(=O)=O)c2CN1C(=O)Nc1cc(F)c(F)c(F)c1` [Compound 58, (S)-3-(1,1-dioxidoisothiazolidin-2-yl)-6-methyl-N-(3,4,5-trifluorophenyl)-6,7-dihydroisoxazolo[4,3-c]pyridine-5(4H)-carboxamide] and `C[C@H]1Cc2noc(N3CCOCC3=O)c2CN1C(=O)Nc1cc(F)c(F)c(F)c1` [Compound 49, (S)-6-methyl-3-(3-oxomorpholino)-N-(3,4,5-trifluorophenyl)-6,7-dihydroisoxazolo[4,3-c]pyridine-5(4H)-carboxamide] cannot be ordered by EC50: less than 100 nM for the first, less than 100 nM for the second.

`COC[C@H]1CN(c2onc3c2CN(C(=O)Nc2cc(F)c(F)c(F)c2)[C@@H](C)C3)C(=O)O1` [Compound 62, (S)-3-((R)-5-(methoxymethyl)-2-oxooxazolidin-3-yl)-6-methyl-N-(3,4,5-trifluorophenyl)-6,7-dihydroisoxazolo[4,3-c]pyridine-5(4H)-carboxamide] and `COC[C@@H]1CN(c2onc3c2CN(C(=O)Nc2cc(F)c(F)c(F)c2)[C@@H](C)C3)C(=O)O1` [Compound 61, (S)-3-((S)-5-(methoxymethyl)-2-oxooxazolidin-3-yl)-6-methyl-N-(3,4,5-trifluorophenyl)-6,7-dihydroisoxazolo[4,3-c]pyridine-5(4H)-carboxamide] fall in the same range of EC50: 100 to 1000 nM for the first, 100 to 1000 nM for the second.

`O=C(Nc1cc(F)c(F)c(F)c1)N1CCc2noc(N3CCCC3)c2C1` [Compound 5.3, 3-(pyrrolidin-1-yl)-N-(3,4,5-trifluorophenyl)-6,7-dihydroisoxazolo[4,3-c]pyridine-5(4H)-carboxamide] and `O=C(Nc1cc(F)c(F)c(F)c1)N1CCc2noc(N3CCOC3=O)c2C1` [Compound 5.2, 3-(2-oxooxazolidin-3-yl)-N-(3,4,5-trifluorophenyl)-6,7-dihydroisoxazolo[4,3-c]pyridine-5(4H)-carboxamide] cannot be ordered by EC50: no less than 1000 nM for the first, 100 to 1000 nM for the second.

Compared with `C[C@H]1Cc2noc(N3CCCCC3=O)c2CN1C(=O)Nc1ccc(C#N)c(F)c1` [Compound 47, (S)—N-(4-cyano-3-fluorophenyl)-6-methyl-3-(2-oxopiperidin-1-yl)-6,7-dihydroisoxazolo[4,3-c]pyridine-5(4H)-carboxamide], `C[C@H]1Cc2noc(N3CCCC3=O)c2CN1C(=O)Nc1ccc(F)c(C#N)c1` [Compound 53, (S)—N-(3-cyano-4-fluorophenyl)-6-methyl-3-(2-oxopyrrolidin-1-yl)-6,7-dihydroisoxazolo[4,3-c]pyridine-5(4H)-carboxamide] is lower in EC50: 100 to 1000 nM for the first, less than 100 nM for the second.

First: O=C(Nc1cc(F)c(F)c(C(F)F)c1)N1CCc2noc(N3CCCOC3=O)c2C1 [Compound 45, N-(3-(difluoromethyl)-4,5-difluorophenyl)-3-(2-oxo-1,3-oxazinan-3-yl)-6,7-dihydroisoxazolo[4,3-c]pyridine-5(4H)-carboxamide]
Second: C[C@H]1Cc2noc(N3CCCOC3=O)c2CN1C(=O)Nc1ccnc(C(F)F)c1 [Compound 52, (S)—N-(2-(difluoromethyl)pyridin-4-yl)-6-methyl-3-(2-oxo-1,3-oxazinan-3-yl)-6,7-dihydroisoxazolo[4,3-c]pyridine-5(4H)-carboxamide]
The EC50 of the first is lower: less than 100 nM for the first, 100 to 1000 nM for the second.

First: C[C@H]1Cc2noc(-c3cn(C)nn3)c2CN1C(=O)Nc1cc(F)c(F)c(F)c1 [Compound 37]
Second: C[C@H]1Cc2noc(-c3ccn(C)n3)c2CN1C(=O)Nc1cc(F)c(F)c(F)c1 [Compound 33]
The EC50 of the first is higher: 100 to 1000 nM for the first, less than 100 nM for the second. The second is the more potent here.

`C[C@H]1c2c(noc2-c2ccc(F)cn2)CCN1C(=O)Nc1cc(F)c(F)c(F)c1` [Compound 28, (S)-3-(5-fluoropyridin-2-yl)-4-methyl-N-(3,4,5-trifluorophenyl)-6,7-dihydroisoxazolo[4,3-c]pyridine-5(4H)-carboxamide] and `CC1c2c(noc2-c2ccc(F)cc2F)CCN1C(=O)Nc1cc(F)c(F)c(F)c1` (stereo not drawn) [Compound 4.1, 3-(2,4-difluorophenyl)-4-methyl-N-(3,4,5-trifluorophenyl)-6,7-dihydroisoxazolo[4,3-c]pyridine-5(4H)-carboxamide] cannot be ordered by EC50: 100 to 1000 nM for the first, no less than 1000 nM for the second.

`Cc1nc(-c2onc3c2CN(C(=O)Nc2cc(F)c(F)c(F)c2)[C@@H](C)C3)no1` [Compound 41] and `Cc1nc(-c2onc3c2[C@H](C)N(C(=O)Nc2cc(F)c(F)c(F)c2)CC3)no1` [Compound 42] fall in the same range of EC50: 100 to 1000 nM for the first, 100 to 1000 nM for the second.

`C[C@H]1Cc2noc(-c3ccccc3F)c2CN1C(=O)Nc1cc(F)c(F)c(F)c1` [Compound 10] and `Cc1ccccc1-c1onc2c1CN(C(=O)Nc1cc(F)c(F)c(F)c1)[C@@H](C)C2` [Compound 17] fall in the same range of EC50: 100 to 1000 nM for the first, 100 to 1000 nM for the second.

`C[C@H]1Cc2noc(-c3cccc(F)c3)c2CN1C(=O)Nc1cc(F)c(F)c(F)c1` [Compound 21] and `COc1cccc(-c2onc3c2CN(C(=O)Nc2cc(F)c(F)c(F)c2)[C@@H](C)C3)c1` [Compound 20] fall in the same range of EC50: 100 to 1000 nM for the first, 100 to 1000 nM for the second.

`Cc1nc(-c2onc3c2[C@H](C)N(C(=O)Nc2cc(F)c(F)c(F)c2)CC3)cs1` [Compound 30, (S)-4-methyl-3-(2-methylthiazol-4-yl)-N-(3,4,5-trifluorophenyl)-6,7-dihydroisoxazolo[4,3-c]pyridine-5(4H)-carboxamide] and `Cc1nc(-c2onc3c2[C@H](C)N(C(=O)Nc2cc(F)c(F)c(F)c2)CC3)co1` [Compound 36] cannot be ordered by EC50: no less than 1000 nM for the first, no less than 1000 nM for the second.

`C[C@H]1Cc2noc(N3CCCCC3=O)c2CN1C(=O)Nc1ccccc1` [Compound 54, (S)-6-methyl-3-(2-oxopiperidin-1-yl)-N-phenyl-6,7-dihydroisoxazolo[4,3-c]pyridine-5(4H)-carboxamide] and `C[C@H]1Cc2noc(-c3ccccc3)c2CN1C(=O)Nc1cc(F)c(F)c(F)c1` [Compound 15] fall in the same range of EC50: 100 to 1000 nM for the first, 100 to 1000 nM for the second.

`C[C@H]1Cc2noc(-c3ccccc3Cl)c2CN1C(=O)Nc1cc(F)c(F)c(F)c1` [Compound 12] gave an EC50 of 100 to 1000 nM.
